Assay results: patent publication US20070105910A1, “Medicinal composition” (priority 2003, published 2007)
Where a name gives a salt, the structure may show the parent alone.

Assay: Repeated oral administration test for 10 days using rats: blood hemoglobin (Hb)
Type: in vivo
Details: SD rats; after 10 days oral administration; pioglitazone hydrochloride 240 mg/kg/day, benfotiamine 100 mg/kg/day where combined
Experimental: After termination of the administration, the blood was collected from the rats and the hemoglobin (Hb) value was determined. Then, the rats were killed, and their hearts were weighed (relative weight).

Blood Hb conc. after administration: 13.6 g/dL
SMILES: CCc1ccc(CCOc2ccc(CC3SC(=O)NC3=O)cc2)nc1 (stereo not shown) [Pioglitazone HCl, pioglitazone hydrochloride]
